In publication PMC10666548, “Identification of the bacterial metabolite aerugine as potential trigger of human dopaminergic neurodegeneration” (Environment international, 2023):
Entries after “also recorded” stand apart in the source; their conditions may differ.

How the values were obtained:
[1] = system: Enterococcus faecalis; test: Bacterial growth assay; type: cell-based; settings: 20 μM, log growth phase
Method: Enterococcus faecalis was grown in BHI medium (BD Difco Brain Heart Infusion) with 36 g/l supplemented with 20 μg/ml hemin, 20 μg/ml NAD and 15 g/l agar for plates. Enterococcus faecalis strain 438 originates from eye isolate. Neisseria gonorrhoeae strain MS11 was gifted by T. F. Meyer (Max-Planck-Institute for Infection Biology, Berlin, Germany) ([Edwards et al., 1984]).
Bacteria were grown as described above on solid medium. Prior to substance exposure, bacteria were pre-cultured in liquid medium for at least 2 h. Optical density was determined and a volume equal to an OD550 of 0.2 for Neisseria gonorrhoeae MS11 (equates a final OD550 of 0.04) and an OD600 of 0.2 for Enterococcus faecalis (equates a final OD600 of 0.04) was inoculated into 5 ml of the respective liquid medium. Compound was added at the indicated amounts. Dimethyl sulfoxide (DMSO) level was adjusted to 1 % of final concentration including DMSO control. Samples were incubated for either 10.5 h, until they reached a stationary phase (three measured values in stationary phase) or until they reached an OD of 2.5. Optical density was determined every 0.5 h at OD550 for Neisseria gonorrhoeae MS11 and at OD600 for Enterococcus faecalis. ([Szamosvári et al., 2019]).

[2] = system: GABA neurons of C. elegans Punc-25; test: C. elegans GABA neuron degeneration scoring (GFP-labelled neurons); type: in vivo, Caenorhabditis elegans; settings: 48 h exposure
Method: (§1) The strain BY200 Pdat-1::gfp (vtIs1), dat-1::GFP(vtls1) was kindly provided by the Blakely laboratory, Vanderbilt University Medical Center and the strain Punc-25:GFP was obtained from the Caenorhabditis Genetics Center (CGC, University of Minnesota, Minneapolis, MN, USA). The worms were maintained in nematode growth medium (NGM) plates that contain: 3 g/l NaCl, 17 g/l agar, 2.5 g/l peptone, 1 mM CaCl2, 5 mg/l cholesterol, 1 mM MgSO4, 25 mM potassium phosphate buffer (pH 6.0) with 1.25 ml nystatin and 50 mg/l streptomycin sulfate) and Escherichia coli (E. coli) OP50 strain was used as food ([Brenner, 1974]). […]
(§2) On day 2 and day 8, approximately, 20–30 worms per treatment were picked onto slides prepped with a 3% agarose pad, anesthetized with 5 μl of 3 mM levamisole hydrochloride ([Sulston et al., 1975]) and observed under an Olympus BX41 fluorescence microscope to determine morphology status according to novel Likert-like scale of degeneration as previously described ([Benedetto et al., 2010]).
(§3) Fig. 5. […] They were exposed to different aerugine concentrations and counted every 24 h. […] Differences on a given day were analyzed by ANOVA and found to be non-significant. […] The GFP-labelled neurons of 20–30 worms per condition were analyzed and scored for specific neurodegeneration. […] These scores were assessed to quantify the dopaminergic neurodegeneration caused be aerugine in vivo. […]

[3] = system: LUHMES neurons; test: LDH-release and resazurin reduction tests on d6 LUHMES; type: cell-based, human; settings: 24 h
Method: The assay was performed as described earlier ([Latta et al., 2000]). In brief, supernatants were transferred to an un-coated 96-wellplate and cells were lysed in 110 μl of phosphate buffered saline (PBS) with 0.1% Triton-X100 for 1 h at room temperature. Lactate dehydrogenase (LDH) activity was assessed in the supernatant and the cell lysate individually by combining 10 μl sample with 100 μl potassium phosphate buffer pH 7.5 containing 640 μM pyruvate and […] NADH. NADH was quantified by measuring the absorption at 340 nm over 15 min and its decline was proportional to the LDH content. LDH release was calculated as the ratio of LDHsupernatant/LDHsupernatant+lysate.
The assay was performed as described previously ([Schildknecht et al., 2009]). In brief, cells were stained with 10 μg/ml resazurin and incubated for 30 min at 37 °C and 5% CO2. The fluorescence of resazurin was detected with an excitation wavelength of 530 nm, using a 590 nm long-pass filter to record the emission. […]
Supplementary Figure S7: Viability endpoints measured on d6 LUHMES treated with aerugine Cultures of differentiated LUHMES neurons were exposed on d6 to serial dilutions of aerugine for 24 h. The cell viability (V), neurite area (NA) were assessed 24 h later by calcein-AM & H-33342 staining and high content imaging. Resazurin reduction and LDH release were measured subsequently. […]

[4] = system: dopamine neurons of C. elegans BY200; test: C. elegans dopaminergic neurodegeneration scoring (GFP-labelled neurons); type: in vivo, Caenorhabditis elegans; settings: 48 h exposure
Method: as §1, §2, §3

OCC1CSC(c2ccccc2O)=N1 (centres unmarked) [aerugine, 2-[4-(hydroxymethyl)-4,5-dihydro-1,3-thiazol-2-yl]phenol]
viability or growth [1]: not affected in viability or growth
degeneration of GABA neurons [2]: not affected
LDH-release and resazurin reduction viability [3]: confirmed the single cell data, although with slightly less sensitivity
DAergic neurons that lost their normal (fully) healthy phenotype [4]: Up to 50%
degeneration of DA neurons ([4]; L4 worms): concentration-dependent degeneration of DA neurons; also recorded: specific neurodegeneration was observed
